From patent US20130217702A1 (Richter Gedeon Nyrt., priority 2010, published 2013)
Read-outs that look alike come from different tables or passages of the source.

How the values were obtained:
[1] = target: T1, human recombinant bradykinin B1 receptor (Homo sapiens, UniProt P46663); experiment: Human recombinant bradykinin B1 receptor competitive radioligand binding
T1 construct: host or cells: CHO cells, clone hB1-A5
T1 sequence (P46663 1-353): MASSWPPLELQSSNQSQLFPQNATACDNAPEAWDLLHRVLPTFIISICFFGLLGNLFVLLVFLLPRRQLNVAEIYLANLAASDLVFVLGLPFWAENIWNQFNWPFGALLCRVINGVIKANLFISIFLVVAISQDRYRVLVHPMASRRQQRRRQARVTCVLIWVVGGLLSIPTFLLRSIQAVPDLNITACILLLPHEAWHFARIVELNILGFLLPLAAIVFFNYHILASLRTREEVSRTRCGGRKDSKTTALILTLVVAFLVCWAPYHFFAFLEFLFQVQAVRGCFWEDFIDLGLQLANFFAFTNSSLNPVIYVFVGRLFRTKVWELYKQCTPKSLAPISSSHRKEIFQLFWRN
Summary of the method: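 Competition radioligand binding on CHO-expressed hB1 membranes, using [3,4-prolyl-3,4-^3H(N)]-[Des-Arg^10] Kallidin as tracer, 15 min at 25° C. Excess Lys-des-Arg^9-Bradykinin (10 μM) set nonspecific binding. Sigmoidal fits of at least seven concentrations gave IC50, converted to Ki via Cheng-Prusoff; KD from Scatchard.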

[2] = target: T2, recombinant human B1 receptors (Homo sapiens, UniProt P46663); experiment: Functional assay: antagonist potency by cytosolic calcium measurement (plate reader fluorimeter) in CHO-B1 cells, agonist LysDABK; format: cell-based
T2 construct: host or cells: CHO (CHO-B1)
T2 sequence (P46663 1-353): T1 sequence (P46663 1-353)
Summary of the method: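 IC50 is the concentration giving half-maximal inhibition of the LysDABK (EC80) calcium response, fitted from at least three experiments. CHO cells stably expressing human B1 were dye-loaded, exposed to compound for 20-25 min, then read by fluo-4 fluorescence (ΔF/F) at 37 °C.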

[3] = hB1 expressed in CHO cells, [3H]-[Des-Arg10] Kallidin radioligand, read-out: B1 binding
[4] = CHO-B1 cells, inhibition of LysDABK (EC80)-evoked [Ca2+]i elevation, read-out: B1 func.

Compound	Ki [1, 3] [µM]	IC50 [2, 4] [µM]	Ki ([1]; reference compounds, binding test, measured by the applicant, read-out: Ki) [µM]	IC50 ([2]; reference compounds, functional test, measured by the applicant, read-out: IC50) [µM]
Cc1nc(-c2c(Cl)c3ccccc3n2-c2ccc(CNC(=O)C3(NC(=O)c4cccc(C(F)(F)F)c4F)CC3)cc2)no1 [Example 92, N-(1-{4-[3-Chloro-2-(5-methyl-[1,2,4]oxadiazol-3-yl)-indol-1-yl]-benzylcarbamoyl}-cyclopropyl)-2-fluoro-3-trifluoromethyl-benzamide]	< 0.02	< 0.02		
Cc1nc(-c2c(Cl)c3ccccc3n2-c2ccc(CNC(=O)C3(NC(=O)c4ccnc(F)c4)CC3)c(F)c2)no1 [Example 109, N-(1-{4-[3-Chloro-2-(5-methyl-[1,2,4]oxadiazol-3-yl)-indol-1-yl]-2-fluoro-benzylcarbamoyl}-cyclopropyl)-2-fluoro-isonicotinamide]	< 0.02	< 0.02		
Cc1cnc(C(=O)NC2(C(=O)NCc3ccc(-n4c(-c5noc(C)n5)c(Cl)c5ccccc54)cc3)CC2)cn1 [Example 161, 5-Methyl-pyrazine-2-carboxylic acid (1-{4-[3-chloro-2-(5-methyl-[1,2,4]oxadiazol-3-yl)-indol-1-yl]-benzylcarbamoyl}-cyclopropyl)-amide]	< 0.02	0.02 to 0.1		
COC(=O)c1c(Cl)c2ccccc2n1-c1ccc(CNC(=O)C2(NC(=O)c3cc(OC)no3)CC2)c(F)c1 [Example 55, 3-Chloro-1-{3-fluoro-4-[({1-[(3-methoxy-isoxazole-5-carbonyl)-amino]-cyclo-propanecarbonyl}-amino)-methyl]-phenyl}-1H-indole-2-carboxylic acid methyl ester]	< 0.02	< 0.02		
Cc1nc(-c2cc3cc(F)ccc3n2-c2ccc(CNC(=O)C3(NC(=O)c4cncc(C(F)(F)F)c4)CC3)c(F)c2)no1 [Example 132, N-(1-{2-Fluoro-4-[5-fluoro-2-(5-methyl-[1,2,4]oxadiazol-3-yl)-indol-1-yl]-benzylcarbamoyl}-cyclopropyl)-5-trifluoromethyl-nicotinamide]	< 0.02	< 0.02		
Cc1nc(-c2c(Cl)c3ccccc3n2-c2ccc(CNC(=O)C3(NC(=O)c4cccnc4F)CC3)cc2)no1 [Example 95, N-(1-{4-[3-Chloro-2-(5-methyl-[1,2,4]oxadiazol-3-yl)-indol-1-yl]-benzylcarbamoyl}-cyclopropyl)-2-fluoro-nicotinamide]	< 0.02	< 0.02		
Cc1nc(-c2c(Cl)c3ccccc3n2-c2ccc(CNC(=O)C3(NC(=O)C4CCC(=O)N4)CC3)cc2)no1 (stereo not shown) [Example 168, 5-Oxo-pyrrolidine-2-carboxylic acid (1-{4-[3-chloro-2-(5-methyl-[1,2,4]oxadiazol-3-yl)-indol-1-yl]-benzylcarbamoyl}-cyclopropyl)-amide]	< 0.02	0.02 to 0.1		
COc1cc(C(=O)NC2(C(=O)NCc3ccc(-n4c(-c5noc(C)n5)c(Cl)c5ccccc54)cc3)CC2)on1 [Example 9, 3-Methoxy-isoxazole-5-carboxylic acid (1-{4-[3-chloro-2-(5-methyl-[1,2,4]oxadiazol-3-yl)-indol-1-yl]-benzylcarbamoyl}-cyclopropyl)-amide]	< 0.02	< 0.02		
Cc1cccc(C(=O)NC2(C(=O)NCc3ccc(-n4c(-c5noc(C)n5)c(Cl)c5ccccc54)cc3)CC2)c1 [Example 179, N-(1-{4-[3-Chloro-2-(5-methyl-[1,2,4]oxadiazol-3-yl)-indol-1-yl]-benzylcarbamoyl}-cyclopropyl)-3-methyl-benzamide]	< 0.02	0.02 to 0.1		
Cc1noc(-c2c(Cl)c3ccccc3n2-c2ccc(CNC(=O)C3(NC(=O)C(F)(F)F)CC3)cc2)n1 [Example 194, 1-(2,2,2-Trifluoro-acetylamino)-cyclopropanecarboxylic acid 4-[3-chloro-2-(3-methyl-[1,2,4]oxadiazol-5-yl)-indol-1-yl]-benzylamide]	< 0.02	< 0.02		
COC(=O)c1c(Cl)c2c(F)cccc2n1-c1ccc(CNC(=O)C2(NC(=O)c3cc(OC)no3)CC2)cc1 [Example 68, 3-Chloro-4-fluoro-1-{4-[({1-[(3-methoxy-isoxazole-5-carbonyl)-amino]-cyclo-propanecarbonyl}-amino)-methyl]-phenyl}-1H-indole-2-carboxylic acid methyl ester]	< 0.02	< 0.02		
CCCN1C(=O)[C@H](NC(=O)Nc2ccc(N3CCC(N4CCCCC4)CC3)cc2)N=C(c2ccc(C)cc2)c2ccccc21 [N-[4-(,4′-bipiperidin)-1′-ylphenyl]-N′-[(3R)-2,3-dihydro-5-(4-methyl-phenyl)-2-oxo-1-propyl-1H-1,4-benzodiazepin-3-yl]-urea, reference compound]			0.0134	0.0645
COc1cc(C(=O)NC2(C(=O)NCc3ccc(-n4c(C#N)cc5cc(Cl)ccc54)cc3)CC2)on1 [Example 43, 3-Methoxy-isoxazole-5-carboxylic acid {1-[4-(5-chloro-2-cyano-indol-1-yl)-benzylcarbamoyl]-cyclopropyl}-amide]	< 0.02	0.02 to 0.1		
Cc1nc(-c2c(Cl)c3ccccc3n2-c2ccc(CNC(=O)C3(NC(=O)C4CC4C)CC3)cc2)no1 (stereo not shown) [Example 138, 2-Methyl-cyclopropanecarboxylic acid (1-{4-[3-chloro-2-(5-methyl-[1,2,4]oxadiazol-3-yl)-indol-1-yl]-benzylcarbamoyl}-cyclopropyl)-amide]	< 0.02	0.02 to 0.1		
N#Cc1cc2ccccc2n1-c1ccc(CNC(=O)C2(NC(=O)c3cncc(C(F)(F)F)c3)CC2)cc1 [Example 84, N-{1-[4-(2-Cyano-indol-1-yl)-benzylcarbamoyl]-cyclopropyl}-5-trifluoromethyl-nicotinamide]	< 0.02	< 0.02		
Cc1nc(-c2cc3ccccc3n2-c2ccc(CNC(=O)C3(NC(=O)c4cncc(C(F)(F)F)c4)CC3)cc2)no1 [Example 82, N-(1-{4-[2-(5-Methyl-[1,2,4]oxadiazol-3-yl)-indol-1-yl]-benzylcarbamoyl}-cyclopropyl)-5-trifluoromethyl-nicotinamide]	< 0.02	< 0.02		
Cc1nnc(-c2c(Cl)c3ccccc3n2-c2ccc(CNC(=O)C3(NC(=O)C(F)(F)F)CC3)cc2)o1 [Example 6, 1-(2,2,2-Trifluoro-acetylamino)-cyclopropanecarboxylic acid 4-[3-chloro-2-(5-methyl-[1,3,4]oxadiazol-2-yl)-indol-1-yl]-benzylamide]	0.02 to 0.1	0.02 to 0.1		
Cc1nc(-c2c(Cl)c3ccccc3n2-c2ccc([C@@H](C)NC(=O)C3(NC(=O)C(F)(F)F)CC3)cc2)no1 [Example 40, (R)-1-(2,2,2-Trifluoro-acetylamino)-cyclopropanecarboxylic acid (1-{4-[3-chloro-2-(5-methyl-[1,2,4]oxadiazol-3-yl)-indol-1-yl]-phenyl}-ethyl)-amide]	< 0.02	< 0.02		
Cc1noc(-c2c(Cl)c3ccccc3n2-c2ccc(CNC(=O)C3(NC(=O)c4ccnc(F)c4)CC3)cc2)n1 [Example 113, N-(1-{4-[3-Chloro-2-(3-methyl-[1,2,4]oxadiazol-5-yl)-indol-1-yl]-benzylcarbamoyl}-cyclopropyl)-2-fluoro-isonicotinamide]	< 0.02	< 0.02		
COc1cc(C(=O)NC2(C(=O)NCc3ccc(-n4c(-c5noc(C)n5)cc5cc(Cl)ccc54)cc3)CC2)on1 [Example 53, 3-Methoxy-isoxazole-5-carboxylic acid (1-{4-[5-chloro-2-(5-methyl-[1,2,4]oxadiazol-3-yl)-indol-1-yl]-benzylcarbamoyl}-cyclopropyl)-amide]	< 0.02	< 0.02		
COc1cc(C(=O)NC2(C(=O)NCc3ccc(-n4c(-c5noc(C)n5)c(C)c5cc(F)ccc54)cc3)CC2)on1 [Example 200, 3-Methoxy-isoxazole-5-carboxylic acid (1-{4-[5-fluoro-3-methyl-2-(5-methyl-[1,2,4]oxadiazol-3-yl)-indol-1-yl]-benzylcarbamoyl}-cyclopropyl)-amide]	< 0.02	< 0.02		
COc1cc(C(=O)NC2(C(=O)NCc3ccc(-n4c(-c5noc(C)n5)cc5cc(F)ccc54)cn3)CC2)on1 [Example 61, 3-Methoxy-isoxazole-5-carboxylic acid [1-({5-[5-fluoro-2-(5-methyl-[1,2,4]oxadiazol-3-yl)-indol-1-yl]-pyridin-2-ylmethyl}-carbamoyl)-cyclopropyl]-amide]	< 0.02	< 0.02		
COc1ccc2c(c1)cc(C#N)n2-c1ccc(CNC(=O)C2(NC(=O)c3cncc(C(F)(F)F)c3)CC2)cc1 [Example 44, N-{1-[4-(2-Cyano-5-methoxy-indol-1-yl)-benzylcarbamoyl]-cyclopropyl}-5-trifluoromethyl-nicotinamide]	< 0.02	< 0.02		
